Columns and labels:
[1] = test system: HCV sub-genomic replicon, GS4.3; assay: Quantitation by ELISA of NPTII in the HCV sub-genomic replicon, GS4.3, Section B; assay type: cell-based; settings: Hepatitis C virus; GS4.3 cells, 72 h incubation; read-out: Replicon EC50
Description: Quantitation by ELISA of the Selectable Marker Protein, Neomycin Phosphotransferase II (NPTII) in the HCV Sub-Genomic Replicon, GS4.3
The HCV sub-genomic replicon (1377/NS3-3′, accession No. AJ242652), stably maintained in HuH-7 hepatoma cells, was created by Lohmann et al. Science 285: 110-113 (1999). The replicon-containing cell culture, designated GS4.3, was obtained from Dr. Christoph Seeger of the Institute for Cancer Research, Fox Chase Cancer Center, Philadelphia, Pa.
GS4.3 cells were maintained at 37° C., 5% CO2, in DMEM (Gibco 11965-092) supplemented with L-glutamine 200 mM (100×) (Gibco25030-081), non-essential amino acids (NEAA)(Biowhittaker 13-114E), heat-inactivated (HI) Fetal Bovine Serum(FBS)(Hyclone SH3007.03) and 750 μg/ml geneticin (G418)(Gibco 10131-035). Cells were sub-divided 1:3 or 4 every 2-3 days.
24 hours prior to the assay, GS4.3 cells were collected, counted, and plated in 96-well plates (Costar 3585) at 7500 cells/well in 100 μl standard maintenance medium (above) and incubated in the conditions above. To initiate the assay, culture medium was removed, cells were washed once with PBS (Gibco 10010-023) and 90 μl Assay Medium (DMEM, L-glutamine, NEAA, 10% HI FBS, no G418) was added. Inhibitors were made as a 10× stock in Assay Medium, (3-fold dilutions from 10 μM to […] final concentration, final DMSO concentration 1%), 10 μl were added to duplicate wells, plates were rocked to mix, and incubated as above for 72 h.
An NPTII ELISA kit was obtained from AGDIA, Inc. (Compound direct ELISA test system for Neomycin Phosphotransferase II, PSP 73000/4800). Manufacturer's instructions were followed, with some modifications. 10×PEB-1 lysis buffer was made up to include 500 μM PMSF (Sigma P7626, 50 mM stock in isopropanol). After 72 h incubation, cells were washed once with PBS and 150 μl PEB-1 with PMSF was added per well. Plates were agitated vigorously for 15 minutes, room temperature, then frozen at −70° C. Plates were thawed, lysates were mixed thoroughly, and 100 μl were applied to an NPTII Elisa plate. A standard curve was made. Lysate from DMSO-treated control cells was pooled, serially diluted with PEB-1 with PMSF, and applied to duplicate wells of the ELISA plate, in a range of initial lysate amount of 150u1-2.5 ul. In addition, 100 μl buffer alone was applied in duplicate as a blank. Plates were sealed and gently agitated at room temperature for 2 h. Following capture incubation, the plates were washed 5×300 μl with PBS-T (0.5% Tween-20, PBS-T was supplied in the ELISA kit). For detection, a 1× dilution of enzyme conjugate diluent MRS-2 (5×) was made in PBS-T, into which 1:100 dilutions of enzyme conjugates A and B were added, as per instructions. Plates were resealed, and incubated with agitation, covered, room temperature, for 2 h. The washing was then repeated and 100 μl of room temperature TMB substrate was added. After approximately 30 minutes incubation (room temperature, agitation, covered), the reaction was stopped with 50 μl 3M sulfuric acid. Plates were read at 450 nm on a Molecular Devices Versamax plate reader.
Inhibitor effect was expressed as a percentage of DMSO-treated control signal, and inhibition curves were calculated using a 4-parameter equation: y=A+((B−A)/(1+((C/x)^D))), where C is half-maximal activity or EC50.

NS3-NS4A protease = molecular target: T1, NS3-NS4A protease (Hepatitis C virus genotype 1a, UniProt P27958); assay: NS3-NS4A protease assay (NS3 inhibition assay, RETS1 substrate), Section B; assay type: biochemical; settings: read-out: NS3-NS4A IC50
T1 construct: Recombinant E. coli or Baculovirus full-length NS3 was diluted to 3.33 μM with assay buffer; made in house; host or cells: E. coli or baculovirus (BV) system
T1 sequence (P27958 1027-1657): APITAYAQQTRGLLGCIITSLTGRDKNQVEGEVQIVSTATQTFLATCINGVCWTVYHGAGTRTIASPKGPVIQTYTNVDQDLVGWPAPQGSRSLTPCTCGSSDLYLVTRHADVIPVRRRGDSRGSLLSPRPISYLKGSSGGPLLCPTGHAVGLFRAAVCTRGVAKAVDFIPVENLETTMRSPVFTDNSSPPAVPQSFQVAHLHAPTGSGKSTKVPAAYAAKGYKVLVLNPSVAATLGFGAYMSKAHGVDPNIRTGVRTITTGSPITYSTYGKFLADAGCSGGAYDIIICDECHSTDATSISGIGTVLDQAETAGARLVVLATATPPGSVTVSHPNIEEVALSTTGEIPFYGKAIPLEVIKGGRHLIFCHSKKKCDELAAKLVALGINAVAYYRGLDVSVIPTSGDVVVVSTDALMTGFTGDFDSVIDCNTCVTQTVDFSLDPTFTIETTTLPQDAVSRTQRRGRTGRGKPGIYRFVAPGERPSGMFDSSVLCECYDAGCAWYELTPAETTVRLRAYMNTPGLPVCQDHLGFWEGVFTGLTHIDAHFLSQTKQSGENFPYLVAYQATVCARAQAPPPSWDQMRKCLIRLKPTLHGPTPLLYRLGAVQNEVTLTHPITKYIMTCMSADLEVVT
How it was run: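 Kinetic fluorescence read (335 nm excitation, 495 nm emission, 30 min) of RETS1 cleavage by NS3/NS4A-2 complex, 2 nM E. coli or 3 nM baculovirus NS3, after 10 min room-temperature compound pre-incubation. Four-parameter-fit IC50s converted to Ki by Cheng–Prusoff, Ki=IC50/(1+[S]/Km).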

SMILES | EC50 [1] [nM] | IC50 (NS3-NS4A protease) [nM]
O=C(N[C@H]1CCCCC/C=C\[C@@H]2C[C@@]2(C(=O)NS(=O)(=O)C2CC2)NC(=O)[C@@H]2C[C@@H](OC(=O)N3Cc4ccccc4C3)CN2C1=O)O[C@H]1CCOC1 [AR00320080, (1S,4R,6S,14S,18R)-1,3-Dihydro-isoindole-2-carboxylic acid 4-cyclopropanesulfonylaminocarbonyl-2,15-dioxo-14-(tetrahydro-furan-3S-yloxycarbonylamino)-3,16-diaza-tricyclo[14.3.0.0^4,6]nonadec-7-en-18-yl ester] | < 1000 | < 100
C[C@H]1CN(C(=O)O[C@@H]2C[C@H]3C(=O)N[C@]4(C(=O)NS(=O)(=O)C5CC5)C[C@H]4/C=C\CCCCC[C@H](NC(=O)OC(C)(C)C)C(=O)N3C2)Cc2ccccc21 [AR00333462, (1S,4R,6S,14S,18R)-4R-Methyl-3,4-dihydro-1H-isoquinoline-2-carboxylic acid 14-tert-butoxycarbonylamino-4-cyclopropanesulfonylaminocarbonyl-2,15-dioxo-3,16-diaza-tricyclo[14.3.0.0^4,6]nonadec-7-en-18-yl ester] | < 100 | < 100
CC(C)(C)NC(=O)N[C@H]1CCCCC/C=C\[C@@H]2C[C@@]2(C(=O)NS(=O)(=O)C2CC2)NC(=O)[C@@H]2C[C@@H](OC(=O)N3Cc4ccc(Cl)cc4C3)CN2C1=O [AR00320446, (1S,4R,6S,14S,18R)-5-Chloro-1,3-dihydro-isoindole-2-carboxylic acid 14-(3-tert-butyl-ureido)-4-cyclopropanesulfonylaminocarbonyl-2,15-dioxo-3,16-diaza-tricyclo[14.3.0.0^4,6]nonadec-7-en-18-yl ester] | < 100 | < 100
CC(C)(C)OC(=O)N[C@H]1CCCCC/C=C\[C@@H]2C[C@@]2(C(=O)NS(=O)(=O)C2CC2)NC(=O)[C@@H]2C[C@@H](OC(=O)N3Cc4ccccc4C3)CN2C1=O [AR00294381, (1S,4R,6S,14S,18R)-1,3-Dihydro-isoindole-2-carboxylic acid 14-tert-butoxycarbonylamino-4-cyclopropanesulfonylaminocarbonyl-2,15-dioxo-3,16-diaza-tricyclo[14.3.0.0^4,6]nonadec-7-en-18-yl ester] | < 100 | < 100
CC(C)(C)OC(=O)N[C@H]1CCCCC/C=C\[C@@H]2C[C@@]2(C(=O)O)NC(=O)[C@@H]2C[C@@H](OC(=O)N3CCc4c(F)cccc4C3)CN2C1=O [AR00294384, (1S,4R,6S,14S,18R)-14-tert-Butoxycarbonylamino-18-(5-fluoro-3,4-dihydro-1H-isoquinoline-2-carbonyloxy)-2,15-dioxo-3,16-diaza-tricyclo[14.3.0.0^4,6]nonadec-7-ene-4-carboxylic acid] | < 10000 | < 1000
COCC1c2cccc(F)c2CCN1C(=O)O[C@@H]1C[C@H]2C(=O)N[C@]3(C(=O)O)C[C@H]3/C=C\CCCCC[C@H](NC(=O)OC(C)(C)C)C(=O)N2C1 (stereo partly drawn) [AR00365349, (1S,4R,6S,14S,18R)-14-tert-Butoxycarbonylamino-18-(5-fluoro-1-methoxymethyl-3,4-dihydro-1H-isoquinoline-2-carbonyloxy)-2,15-dioxo-3,16-diaza-tricyclo[14.3.0.0^4,6]nonadec-7-ene-4-carboxylic acid] | < 1000 | < 1000
Cc1nc(-c2ccc3c(c2)CN(C(=O)O[C@@H]2C[C@H]4C(=O)N[C@]5(C(=O)NS(=O)(=O)C6CC6)C[C@H]5/C=C\CCCCC[C@H](NC(=O)OC(C)(C)C)C(=O)N4C2)C3)cs1 [AR00364989, (1S,4R,6S,14S,18R)-5-(2-Methyl-thiazol-4-yl)-1,3-dihydro-isoindole-2-carboxylic acid 14-tert-butoxycarbonylamino-4-cyclopropanesulfonylaminocarbonyl-2,15-dioxo-3,16-diaza-tricyclo[14.3.0.0^4,6]nonadec-7-en-18-yl ester] | < 100 | < 100
O=C(N[C@H]1CCCCC/C=C\[C@@H]2C[C@@]2(C(=O)NS(=O)(=O)C2CC2)NC(=O)[C@@H]2C[C@@H](OC(=O)N3Cc4ccc(Cl)cc4C3)CN2C1=O)OC1CCCC1 [AR00334218, (1S,4R,6S,14S,18R)-5-Chloro-1,3-dihydro-isoindole-2-carboxylic acid 14-cyclopentyloxycarbonylamino-4-cyclopropanesulfonylaminocarbonyl-2,15-dioxo-3,16-diaza-tricyclo[14.3.0.0^4,6]nonadec-7-en-18-yl ester] | < 100 | < 100
CC(C)Nc1ccc2c(c1)CN(C(=O)O[C@@H]1C[C@H]3C(=O)N[C@]4(C(=O)NS(=O)(=O)C5CC5)C[C@H]4/C=C\CCCCC[C@H](NC(=O)OC(C)(C)C)C(=O)N3C1)C2 [AR00341649, (1S,4R,6S,14S,18R)-5-Isopropylamino-1,3-dihydro-isoindole-2-carboxylic acid 14-tert-butoxycarbonylamino-4-cyclopropanesulfonylaminocarbonyl-2,15-dioxo-3,16-diaza-tricyclo[14.3.0.0^4,6]nonadec-7-en-18-yl ester] | < 100 | < 100
O=C(N[C@H]1CCCCC/C=C\[C@@H]2C[C@@]2(C(=O)O)NC(=O)[C@@H]2C[C@@H](OC(=O)N3CCc4ccccc4C3)CN2C1=O)O[C@@H]1CCOC1 [AR00304127, (1S,4R,6S,14S,18R)-18-(3,4-Dihydro-1H-isoquinoline-2-carbonyloxy)-2,15-dioxo-14-(tetrahydro-furan-3R-yloxycarbonylamino)-3,16-diaza-tricyclo[14.3.0.0^4,6]nonadec-7-ene-4-carboxylic acid] | < 10000 | < 1000
O=C(NC1CCCC1)N[C@H]1CCCCC/C=C\[C@@H]2C[C@@]2(C(=O)NS(=O)(=O)C2CC2)NC(=O)[C@@H]2C[C@@H](OC(=O)N3Cc4ccc(Cl)cc4C3)CN2C1=O [AR00320574, (1S,4R,6S,14S,18R)-5-Chloro-1,3-dihydro-isoindole-2-carboxylic acid 14-(3-cyclopentyl-ureido)-4-cyclopropanesulfonylaminocarbonyl-2,15-dioxo-3,16-diaza-tricyclo[14.3.0.0^4,6]nonadec-7-en-18-yl ester] | < 100 | < 100
CC(C)(C)OC(=O)N[C@H]1CCCCC/C=C\[C@@H]2C[C@@]2(C(=O)NS(=O)(=O)C2CC2)NC(=O)[C@@H]2C[C@@H](OC(=O)N3Cc4cccc(F)c4C3)CN2C1=O [AR00334191, (1S,4R,6S,14S,18R)-4-Fluoro-1,3-dihydro-isoindole-2-carboxylic acid 14-tert-butoxycarbonylamino-4-cyclopropanesulfonylaminocarbonyl-2,15-dioxo-3,16-diaza-tricyclo[14.3.0.0^4,6]nonadec-7-en-18-yl ester] | < 100 | < 100
O=C(N[C@H]1CCCCC/C=C\[C@@H]2C[C@@]2(C(=O)O)NC(=O)[C@@H]2C[C@@H](OC(=O)N3Cc4ccccc4C3)CN2C1=O)OC1CCOCC1 [AR00320077, (1S,4R,6S,14S,18R)-18-(1,3-Dihydro-isoindole-2-carbonyloxy)-2,15-dioxo-14-(tetrahydro-pyran-4-yloxycarbonylamino)-3,16-diaza-tricyclo[14.3.0.0^4,6]nonadec-7-ene-4-carboxylic acid] | < 10000 | < 1000

Reference: patent publication US7491794B2, “Macrocyclic compounds as inhibitors of viral replication” (Intermune, Inc., priority 2003, dated 2009)
